Experimental data published in PMC10948870, “De novo antioxidant peptide design via machine learning and DFT studies” (Scientific Reports, 2024).

What was measured:
[1] = tested on: red blood cells (RBCs); experiment: Hemolysis assay; format: cell-based, human; settings: 0.1% SDS + distilled water; 4 h room temperature; absorbance 450 nm
Procedure: The hemolysis test was performed as standard protocol. A 1.5 mL heparin blood sample was obtained from a healthy volunteer in our laboratory. The red blood cells (RBCs) were collected by centrifugation of blood samples at 3000 rpm for 15 min and then were washed three times with PBS. The RBC pellet was resuspended in a 10 mL phosphate-buffer solution (PBS). A 100 µL/well of different concentrations of peptides were added into a 96-well plate (2000 µg/mL, 1000 µg/mL, 500 µg/mL, 250 µg/mL, 125 µg/mL, 62.5 µg/mL, 31.25 µg/mL, 15.62 µg/mL, 7.8 µg/mL). For positive hemolysis control 100 µL/well of 0.1% sodium dodecyl sulfate and distilled water, and for negative hemolysis control 100 µL/well of PBS were added into the appropriated wells. After that, 100 µL RBC suspension was added into all the wells. The plate was incubated at room temperature for 4 h. Then the 100 µL supernatant of each well was carefully transferred to a new 96-well plate. The solution absorbance was investigated by a UV–Vis instrument at 450 nm.

[2] = Hydroxyl radical scavenging activity assay; format: biochemical; settings: positive control, 0.5 mM solution; UV-Vis 510 nm
Text: Hydroxyl radical is one of the strong reactive oxygen species in biological systems that react with the unsaturated fatty acid of phospholipids of the cell membrane and cause cell damage[36]–[38]. To assess the efficacy of peptides in countering hydroxyl radicals, we subjected them to a hydroxyl radical-scavenging activity assay, indicating their scavenging potential across a range of concentrations. The method for preparing the test samples, reagents, and control samples for the hydroxyl scavenging activity assay is as follows: initially, peptide samples at 10 mg/mL concentration were dissolved in ethanol, and subsequently, diluted concentrations of 2, 4, 6, and 8 mg/L were obtained from this solution. The assay reagent includes 6 mM hydrogen peroxide and 6 mM ferrous sulfate in ethanol. A solution of ascorbic acid with 0.5 mM concentration has been prepared as a positive control and a solution without the peptide sample is considered as negative control. […] After 30 min, the UV–Vis absorbance was determined at 510 nm. The determination of hydroxyl radical scavenging activity for the peptide samples was executed as follows:2 Hydroxyl radical scavenging activity%=A0-A1/A0×100, where A0 is the absorbance of the negative control (solution without the peptide sample) and A1 is the absorbance of the peptide samples.

[3] = DPPH scavenging activity assay; format: biochemical; settings: compared among six synthesized peptides and with ascorbic acid 0.5 mM
Procedure: A straightforward and expeditious approach for quantifying the antioxidant activity of antioxidants involves employing the 2,2-diphenyl-1-picrylhydrazyl (DPPH) assay, a spectrophotometric technique[36]–[38]. Preparation of the test sample, reagent, and control sample in the DPPH assay is as follows: peptide samples with a concentration of 10 mg/mL were prepared in ethanol and then were diluted in 2, 4, 6, and 8 mg/L concentrations. The DPPH solution is prepared with a concentration of 0.02% (w/v) in methanol. A solution of 0.5 mM ascorbic acid has been prepared as a positive control, and methanol is considered as the negative control sample. The peptide sample (250 μL) with DPPH solution (250 μL) in ethanol (1.0 mL) was mixed and stirred in the dark for 30 min at room temperature. The solutions were analyzed using a UV–Vis instrument (Varian, Cary 100) at 517 nm. The calculation of antioxidant activity percentage is reported as the following equation:1 DPPH scavenging activity%=A0-A1/A0×100.
In Eq. (1), A0 is the absorbance of the negative control (methanol) and A1 is the optical absorbance of the peptide samples.

Compound	DPPH free radical scavenging activity, in words [3]	further results
CCCCCCCCCCCCOS(=O)(=O)[O-].[Na+] [SDS, sodium dodecyl sulfate]	–	Hemolysis, OD value of positive control [1]: 2.21
O=C1O[C@H]([C@@H](O)CO)C(O)=C1O [ascorbic acid]	–	Hydroxyl radical scavenging activity [2]: 93.9%
LHHWY [GP12, ML-generated antioxidant peptide LHHWY, synthesized]	highest free radical scavenging activity	–
YWHW [GP9, ML-generated antioxidant peptide YWHW, synthesized]	highest free radical scavenging activity	–
YWYHF [GP10, ML-generated antioxidant peptide YWYHF, synthesized]	highest free radical scavenging activity	–
